# System: CN0375-F725-PDC KRAS spheroid viability
# Assay: Anticancer human tumor CN0375-F725-PDC patient-derived colon carcinoma cell line growth inhibition [KRAS2]
# Conditions: spheroids with HUVEC and MSC; for IC50: curve of first compound; for viability, T/C: stronger effect = lower value
# Procedure, shortened: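 Combination screen of spheroid viability in tumor-cell co-cultures with endothelial (HUVEC) and mesenchymal stem cell stroma. Each agent was tested in half-log dilutions, topping at clinical Cmax or at 10 microM without a known Cmax.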
# [1] = second compound 0.1 µM, first compound 0.0316 µM
# [2] = second compound 0.1 µM, first compound 0.1 µM
# [3] = second compound 0.1 µM, first compound 0.316 µM
# [4] = second compound 0.1 µM, first compound 1 µM
# [5] = second compound 0.1 µM, first compound 3.16 µM
# [6] = second compound 0.1 µM, first compound 10 µM
# [7] = second compound 0.316 µM, first compound 0.0316 µM
# [8] = second compound 0.316 µM, first compound 0.1 µM
# [9] = second compound 0.316 µM, first compound 0.316 µM
# [10] = second compound 0.316 µM, first compound 1 µM
# [11] = second compound 0.316 µM, first compound 3.16 µM
# [12] = second compound 0.316 µM, first compound 10 µM
# [13] = second compound 1 µM, first compound 0.0316 µM
# [14] = second compound 1 µM, first compound 0.1 µM
# [15] = second compound 1 µM, first compound 0.316 µM
# [16] = second compound 1 µM, first compound 1 µM
# [17] = second compound 1 µM, first compound 3.16 µM
# [18] = second compound 1 µM, first compound 10 µM
# [19] = second compound 3.16 µM, first compound 0.0316 µM
# [20] = second compound 3.16 µM, first compound 0.1 µM
# [21] = second compound 3.16 µM, first compound 0.316 µM
# [22] = second compound 3.16 µM, first compound 1 µM
# [23] = second compound 3.16 µM, first compound 3.16 µM
# [24] = second compound 3.16 µM, first compound 10 µM
# [25] = second compound 10 µM, first compound 0.0316 µM
# [26] = second compound 10 µM, first compound 0.1 µM
# [27] = second compound 10 µM, first compound 0.316 µM
# [28] = second compound 10 µM, first compound 1 µM
# [29] = second compound 10 µM, first compound 3.16 µM
# [30] = second compound 10 µM, first compound 10 µM
# 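Further: spheroids exposed to agents for 7 days.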
Compound,IC50 (second compound 0.1 µM) [µM],IC50 (second compound 0.316 µM) [µM],IC50 (second compound 1 µM) [µM],IC50 (second compound 3.16 µM) [µM],IC50 (second compound 10 µM) [µM],"viability, T/C [1] [%]","viability, T/C [2] [%]","viability, T/C [3] [%]","viability, T/C [4] [%]","viability, T/C [5] [%]","viability, T/C [6] [%]","viability, T/C [7] [%]","viability, T/C [8] [%]","viability, T/C [9] [%]","viability, T/C [13] [%]","viability, T/C [14] [%]","viability, T/C [19] [%]","viability, T/C [20] [%]","viability, T/C [25] [%]","viability, T/C [26] [%]",also measured
CC(C)NCC(C(=O)N1CCN(c2ncnc3c2C(C)CC3O)CC1)c1ccc(Cl)cc1 (stereo not given) + C=CC(=O)N1CCN(c2nc(=O)n(-c3c(C)ccnc3C(C)C)c3nc(-c4c(O)cccc4F)c(F)cc23)C(C)C1,> 10,> 10,> 10,> 10,> 10,108,106,91.4,88.9,87.8,80.1,102,105,92.4,103,110,106,111,101,95.7,"viability, T/C [10]: 89%; viability, T/C [11]: 89.6%; viability, T/C [12]: 75.9%; viability, T/C [15]: 98.8%; viability, T/C [16]: 86.3%; viability, T/C [17]: 84.4%; viability, T/C [18]: 77%; viability, T/C [21]: 101%; viability, T/C [22]: 87.7%; viability, T/C [23]: 84.2%; viability, T/C [24]: 73%; viability, T/C [27]: 88.7%; viability, T/C [28]: 72%; viability, T/C [29]: 71.9%; viability, T/C [30]: 55.7%"
CC1(C)CCC(CN2CCN(c3ccc(C(=O)NS(=O)(=O)c4ccc(NCC5CCOCC5)c([N+](=O)[O-])c4)c(Oc4cnc5[nH]ccc5c4)c3)CC2)=C(c2ccc(Cl)cc2)C1 + C=CC(=O)N1CCN(c2nc(=O)n(-c3c(C)ccnc3C(C)C)c3nc(-c4c(O)cccc4F)c(F)cc23)C(C)C1,4.27,4.49,3.48,6.6,6.28,112,113,105,105,56.9,30.4,110,115,106,110,116,113,118,101,104,"viability, T/C [10]: 108%; viability, T/C [11]: 58.7%; viability, T/C [12]: 30.2%; viability, T/C [15]: 109%; viability, T/C [16]: 103%; viability, T/C [17]: 52.3%; viability, T/C [18]: 23.5%; viability, T/C [21]: 110%; viability, T/C [22]: 104%; viability, T/C [23]: 60.1%; viability, T/C [24]: 44.3%; viability, T/C [27]: 106%; viability, T/C [28]: 103%; viability, T/C [29]: 63.8%; viability, T/C [30]: 40.6%"
Cn1ncnc1[C@H]1c2n[nH]c(=O)c3cc(F)cc(c23)N[C@@H]1c1ccc(F)cc1 + C=CC(=O)N1CCN(c2nc(=O)n(-c3c(C)ccnc3C(C)C)c3nc(-c4c(O)cccc4F)c(F)cc23)C(C)C1,> 0.1,> 0.1,> 0.1,> 0.1,> 0.1,102,98.2,–,–,–,–,99.3,99.9,–,104,99.5,108,99.7,95.7,93.5,"viability, T/C (second compound 0.1 µM, first compound 0.000316 µM): 110%; viability, T/C (second compound 0.1 µM, first compound 0.001 µM): 103%; viability, T/C (second compound 0.1 µM, first compound 0.00316 µM): 100%; viability, T/C (second compound 0.1 µM, first compound 0.01 µM): 103%; viability, T/C (second compound 0.316 µM, first compound 0.000316 µM): 107%; viability, T/C (second compound 0.316 µM, first compound 0.001 µM): 114%; viability, T/C (second compound 0.316 µM, first compound 0.00316 µM): 104%; viability, T/C (second compound 0.316 µM, first compound 0.01 µM): 96.3%; viability, T/C (second compound 1 µM, first compound 0.000316 µM): 107%; viability, T/C (second compound 1 µM, first compound 0.001 µM): 104%; viability, T/C (second compound 1 µM, first compound 0.00316 µM): 109%; viability, T/C (second compound 1 µM, first compound 0.01 µM): 104%; viability, T/C (second compound 3.16 µM, first compound 0.000316 µM): 114%; viability, T/C (second compound 3.16 µM, first compound 0.001 µM): 110%; viability, T/C (second compound 3.16 µM, first compound 0.00316 µM): 108%; viability, T/C (second compound 3.16 µM, first compound 0.01 µM): 104%; viability, T/C (second compound 10 µM, first compound 0.000316 µM): 112%; viability, T/C (second compound 10 µM, first compound 0.001 µM): 106%; viability, T/C (second compound 10 µM, first compound 0.00316 µM): 99.3%; viability, T/C (second compound 10 µM, first compound 0.01 µM): 96.8%"
